Tests used:
tomato (Momotaro Home) = test: Example 24: Dry stress Petri dish test (tomato); type: in vivo; conditions: Dry stress (20 g/L polyethylene glycol); for Root length, Average: 28° C., 12 days; for Root length, Increase rate: non-addition group = 100.0
Excerpt: For each group, three measurement results were obtained (N=3).

lettuce (Green Wave) [1] = test: Example 2: High-temperature stress Petri dish test (lettuce), blending with neohesperidin; conditions: 0.1 ppm
Protocol: For seeds, 2% water agar medium (using water as the solvent), which was prepared such that hesperidin (Fujifilm Wako Pure Chemical Corporation; special-grade reagent) and neohesperidin (Fujifilm Wako Pure Chemical Corporation; special-grade reagent) were contained at the predetermined final concentrations shown in Table 2, was filled into square Petri dishes (“model number: D-210-16”, manufactured by As One Corporation). Before high-temperature treatment, lettuce (Green Wave, Takii & Co., Ltd.) was sown on 2% water agar medium, and lettuce seedlings on day 2 after the sowing were transplanted to the above-described agar medium to which the hesperidin and/or the like was/were added. At the time of the transplantation, the tip of the root was marked. Each Petri dish after the transplantation was placed in an incubator (“model number: FLI-2010A”, manufactured by EYELA) at an angle of 45° with respect to the bottom surface, and high-temperature treatment was carried out at 42° C. for 1.5 hours. Thereafter, culture was similarly performed at 23° C. for 2 days, and then the increase in the root length was evaluated in terms of elongation from the tip of the root of each seedling at the time of the transplantation. In addition, for evaluation of the effect of the mixture of hesperidin and neohesperidin in normal cultivation, culture was similarly performed at 23° C. without performing the high-temperature treatment, followed by evaluation of the increase in the root length. […] The Colby's equation is as follows.
E=(x+y)−(x·y)/100 Colby's equation:
E: Expected root length x: Root length in the case of application of hesperidin alone y: Root length in the case of application of neohesperidin alone For each group, 15 measurement results were obtained (N=15).

lettuce (Green Wave) [2] = test: Example 9: High-temperature stress pot test (lettuce); type: in vivo; conditions: for Fresh weight of above-ground part, Increase rate / Fresh weight of underground part, Increase rate: non-addition group = 100.0; for Fresh weight of above-ground part, Average / Fresh weight of underground part, Average: greenhouse 35° C., 20 days
Protocol: Immediately after the sowing, drenching treatment was carried out with 5 ml/well of a dilution of hesperidin prepared at a final concentration of 100 to 1000 ppm (using water as the solvent). A non-addition group was similarly subjected to drenching treatment using distilled water. High-temperature treatment was carried out by cultivation for 20 days in a greenhouse where the average daytime temperature was 35° C., and then the fresh weight of the above-ground part and the fresh weight of the underground part were evaluated. For each group, 15 to 20 measurement results were obtained (N=15 to 20).

[3] = test system: Zoysia tenuifolia (Korean velvet grass); test: Example 12: Low-temperature stress field test (lawn grass); type: in vivo; conditions: for Number of sprouts, Average: three months after final spraying, low temperature; for Number of sprouts, Increase rate: non-addition group = 100.0
Protocol: In the research institute, a wettable powder formulation containing 1% hesperidin having the formulation composition shown in Table 11 was applied a total of four times by foliar spraying at a ratio of 0.15 to 0.75 g/m^2 (amount of water sprayed, 250 ml) every other week from late October to late December in 2017. Three months after the final spraying, the lawn grass was collected using a hole cutter, and the number of sprouts was measured. For each group, three measurement results were obtained (N=3).
In the period from November 2017 to March 2018, the highest temperature was 16.6° C.; the lowest temperature was −3.7° C.; and the average temperature was 6.0° C. Since the optimum growth temperature of Zoysia tenuifolia (Korean velvet grass) is 24 to 35° C., and it enters a period of dormancy at 10° C. or less, the plant was judged to have been affected by the low-temperature stress.

[4] = test system: Carrot (US Harumakigosun carrot) seeds; test: Example 7: High-temperature stress Petri dish test (carrot seeds); type: in vivo; conditions: for Germination rate, Increase rate: non-addition group = 100.0; for Germination rate, Average: seeds 55° C. hot water 20 minutes, 23° C. 7 days
Protocol: (§1) Carrot (US Harumakigosun carrot, The Yokohama Nursery Co., Ltd.) seeds were soaked in hot water at 55° C. for 20 minutes to perform high-temperature treatment. […] A group similarly soaked in distilled water was provided as a non-addition group. After the soaking treatment, the seeds were dried in air, and then 20 seeds were sown on each of shallow Petri dishes in which qualitative filter paper was placed. To the filter paper in each Petri dish, 3 mL of distilled water was uniformly added dropwise. […] For each group, three measurement results were obtained (N=3).

lettuce (Green Wave) [5] = test: Example 16: Growth-promoting effect (lettuce, drenching treatment); type: in vivo; conditions: for Increase/decrease of above-ground part / Increase/decrease of underground part: non-addition group = 100%; for Weight of above-ground part FW / Weight of underground part FW: 25° C., 14 days
Protocol: Lettuce (Green Wave) was sown on a cell tray filled with seedling culture soil (manufactured by Nihon Hiryo Co., Ltd.; “Naebijin N100”). After the two leaf stage, the lettuce was transplanted to each pot (soil volume, 100 ml). […]

lettuce (Green Wave) [6] = test: Example 22: pH stress Petri dish test (lettuce); type: in vivo; conditions: for Root length, Increase rate: non-addition group = 100.0
lettuce (Green Wave) [7] = test: Example 17: Growth-promoting effect (lettuce, seed treatment); type: in vivo; conditions: for Increase/decrease of above-ground part / Increase/decrease of underground part: non-addition group = 100%; for Weight of above-ground part FW / Weight of underground part FW: 25° C., 28 days
Protocol: For lettuce (Green Wave, Takii & Co., Ltd.), seed dressing was carried out by application, at 5% seed weight, of a dilution of hesperidin prepared at a final concentration of 1 to 100 ppm (using water as the solvent). The dressed lettuce seeds were sown on a cell tray filled with seedling culture soil (manufactured by Nihon Hiryo Co., Ltd.; “Naebijin N100”). […]

Cabbage (Okina) seeds = test: Example 6: High-temperature stress Petri dish test (cabbage seeds); type: in vivo; conditions: for Germination rate, Increase rate / Root length, Increase rate: non-addition group = 100.0; for Root length, Average: after high-temperature treatment; for Germination rate, Average: seeds 52° C. hot water 25 minutes, 23° C. 4 days
Protocol: as §1, with “Cabbage (Okina, Takii & Co.,” for “Carrot (US Harumakigosun carrot, The Yokohama Nursery Co.,”, “at 52°” for “at 55°”, “for 25” for “for 20”, “obtained for the germination rate (N=3), and 15 measurement results were obtained for the root length (N=15).” for “obtained (N=3).”

lettuce (Green Wave) [8] = test: Example 1: High-temperature stress Petri dish test (lettuce), comparison with other natural products; type: in vivo; conditions: 0.1 ppm in agar medium
lettuce (Green Wave) [9] = test: Example 4: High-temperature stress Petri dish test (lettuce), comparison with flavonoids; type: in vivo; conditions: 0.1 ppm
[10] = High-temperature treatment (42° C., 1.5 hours)
[11] = seed treatment (dressing) 1 ppm
[12] = seed treatment (dressing) 10 ppm
[13] = seed treatment (dressing) 100 ppm

COc1ccc([C@@H]2CC(=O)c3c(O)cc(O[C@@H]4O[C@H](CO[C@@H]5O[C@@H](C)[C@H](O)[C@@H](O)[C@H]5O)[C@@H](O)[C@H](O)[C@H]4O)cc3O2)cc1O [Hesperidin]
Root length, Average (tomato (Momotaro Home); 0.1 ppm): 49.89 mm | Root length, Increase rate (tomato (Momotaro Home); 0.1 ppm): 214.2% | Root length, Average (tomato (Momotaro Home); 1 ppm): 55.81 mm | Root length, Increase rate (tomato (Momotaro Home); 1 ppm): 239.6% | Root length (lettuce (Green Wave) [1]; [10]): 10.9 mm | Root length (lettuce (Green Wave) [1]; Normal cultivation): 19.2 mm | Fresh weight of above-ground part, Increase rate (lettuce (Green Wave) [2]; 100 ppm): 114.4% | Fresh weight of underground part, Increase rate (lettuce (Green Wave) [2]; 100 ppm): 122.8% | Fresh weight of above-ground part, Increase rate (lettuce (Green Wave) [2]; 1000 ppm): 109.1% | Fresh weight of underground part, Increase rate (lettuce (Green Wave) [2]; 1000 ppm): 93.9% | Fresh weight of above-ground part, Average (lettuce (Green Wave) [2]; drenching 100 ppm): 0.76 g | Fresh weight of underground part, Average (lettuce (Green Wave) [2]; drenching 100 ppm): 0.29 g | Fresh weight of above-ground part, Average (lettuce (Green Wave) [2]; drenching 1000 ppm): 0.72 g | Fresh weight of underground part, Average (lettuce (Green Wave) [2]; drenching 1000 ppm): 0.22 g | Number of sprouts, Average ([3]; 0.15 g/m^2, foliar spraying four times as wettable powder formulation containing 1% hesperidin): 111.33 number | Number of sprouts, Increase rate ([3]; 0.15 g/m^2): 189.8% | Number of sprouts, Average ([3]; 0.75 g/m^2, foliar spraying four times as wettable powder formulation containing 1% hesperidin): 112.00 number | Number of sprouts, Increase rate ([3]; 0.75 g/m^2): 190.9% | Germination rate, Increase rate ([4]; 100 ppm): 215.8% | Germination rate, Increase rate ([4]; 1000 ppm): 173.7% | Germination rate, Average ([4]; then soaked at 100 ppm): 68.3% | Germination rate, Average ([4]; then soaked at 1000 ppm): 55.0% | Increase/decrease of above-ground part (lettuce (Green Wave) [5]; 1 ppm): 103% | Increase/decrease of underground part (lettuce (Green Wave) [5]; 1 ppm): 115% | Increase/decrease of above-ground part (lettuce (Green Wave) [5]; 3 ppm): 126% | Increase/decrease of underground part (lettuce (Green Wave) [5]; 3 ppm): 119% | Increase/decrease of above-ground part (lettuce (Green Wave) [5]; 100 ppm): 118% | Increase/decrease of underground part (lettuce (Green Wave) [5]; 100 ppm): 123% | Weight of above-ground part FW (lettuce (Green Wave) [5]; drenching treatment 1 ppm): 13.26 mg/individual | Weight of underground part FW (lettuce (Green Wave) [5]; drenching treatment 1 ppm): 7.99 mg/individual | Weight of above-ground part FW (lettuce (Green Wave) [5]; drenching treatment 3 ppm): 16.17 mg/individual | Weight of underground part FW (lettuce (Green Wave) [5]; drenching treatment 3 ppm): 8.29 mg/individual | Weight of above-ground part FW (lettuce (Green Wave) [5]; drenching treatment 100 ppm): 15.12 mg/individual | Weight of underground part FW (lettuce (Green Wave) [5]; drenching treatment 100 ppm): 8.57 mg/individual | Root length, Average (lettuce (Green Wave) [6]; Acid stress (pH 4), 0.1 ppm): 17.69 mm | Root length, Increase rate (lettuce (Green Wave) [6]; Acid stress (pH 4), 0.1 ppm): 121.9% | Root length, Average (lettuce (Green Wave) [6]; Acid stress (pH 4), 1 ppm): 18.03 mm | Root length, Increase rate (lettuce (Green Wave) [6]; Acid stress (pH 4), 1 ppm): 124.3% | Root length, Average (lettuce (Green Wave) [6]; Alkali stress (pH 9), 0.1 ppm): 17.55 mm | Root length, Increase rate (lettuce (Green Wave) [6]; Alkali stress (pH 9), 0.1 ppm): 114.1% | Root length, Average (lettuce (Green Wave) [6]; Alkali stress (pH 9), 1 ppm): 17.40 mm | Root length, Increase rate (lettuce (Green Wave) [6]; Alkali stress (pH 9), 1 ppm): 113.1% | Increase/decrease of above-ground part (lettuce (Green Wave) [7]; 1 ppm): 109% | Increase/decrease of underground part (lettuce (Green Wave) [7]; 1 ppm): 133% | Increase/decrease of above-ground part (lettuce (Green Wave) [7]; 10 ppm): 113% | Increase/decrease of underground part (lettuce (Green Wave) [7]; 10 ppm): 142% | Increase/decrease of above-ground part (lettuce (Green Wave) [7]; 100 ppm): 149% | Increase/decrease of underground part (lettuce (Green Wave) [7]; 100 ppm): 126% | Weight of above-ground part FW (lettuce (Green Wave) [7]; [11]): 27.4 mg/individual | Weight of underground part FW (lettuce (Green Wave) [7]; [11]): 7.6 mg/individual | Weight of above-ground part FW (lettuce (Green Wave) [7]; [12]): 28.3 mg/individual | Weight of underground part FW (lettuce (Green Wave) [7]; [12]): 8.1 mg/individual | Weight of above-ground part FW (lettuce (Green Wave) [7]; [13]): 37.4 mg/individual | Weight of underground part FW (lettuce (Green Wave) [7]; [13]): 7.2 mg/individual | Germination rate, Increase rate (Cabbage (Okina) seeds; 100 ppm): 127.1% | Root length, Increase rate (Cabbage (Okina) seeds; 100 ppm): 189.7% | Germination rate, Increase rate (Cabbage (Okina) seeds; 1000 ppm): 150.3% | Root length, Increase rate (Cabbage (Okina) seeds; 1000 ppm): 224.6% | Root length, Average (Cabbage (Okina) seeds; 100 ppm): 43.6 mm | Root length, Average (Cabbage (Okina) seeds; 1000 ppm): 51.6 mm | Germination rate, Average (Cabbage (Okina) seeds; then soaked at 100 ppm): 66.2% | Germination rate, Average (Cabbage (Okina) seeds; then soaked at 1000 ppm): 78.3% | Root length (lettuce (Green Wave) [8]; High-temperature treatment (42° C., 1.5 hours), then 23° C. 2 days): 24.0 mm | Root length (lettuce (Green Wave) [8]; Normal cultivation): 25.1 mm | Root length (lettuce (Green Wave) [9]; [10]): 16.5 mm | Root length (lettuce (Green Wave) [9]; Normal cultivation): 23.1 mm
